Assay results: patent US12507703B2, “Methods, devices and compositions for preserving human milk” (The Trustees of Princeton University, priority 2023, dated 2025)
Where “and” joins values, the source holds several entries; their conditions need not be identical. Equal entries are not always repeated. Where a SMILES comes first, the peptide text is derived from it.

Test system: lipase
Assay: Lipase/lipolysis assay (EnzChek Lipase Substrate, quenched BODIPY-fatty acid conjugate) on stored human milk; further: test concentration or dose not given here

| SMILES | Lipase (RFU) |
| --- | --- |
| CC(C)=CCc1c(O)cc(O)c2c(=O)c(-c3ccc(O)cc3)coc12 [Lupiwighteone] | 1206.447 RFU |
| O=C(O)[C@H]1O[C@@H](Oc2cc(O)c3c(=O)cc(-c4ccc(O)c(O)c4)oc3c2)[C@H](O)[C@@H](O)[C@@H]1O [Luteolin 7-O-glucuronide] | 995.7867 RFU |
| Oc1cc(O)c2ccc(-c3ccc(O)c(O)c3)[o+]c2c1.[Cl-] [Luteolinidin (chloride)] | 933.7809 RFU |
| CCCCCCCCCCCCCC(=O)OC[C@@H](O)COP(=O)([O-])OCC[N+](C)(C)C [LysoPC(14:0/0:0)] | 1043.126 RFU |
| COc1cc(C[C@H](C)[C@H](C)Cc2ccc3c(c2)OCO3)ccc1O [Macelignan] | 621.9317 RFU |
| C=CCc1ccc(O)c(-c2cc(CC=C)ccc2O)c1 [Magnolol] | 941.9616 RFU |
| OC[C@@H](O)[C@@H](O[C@H]1O[C@H](CO)[C@@H](O)[C@H](O)[C@H]1O)[C@H](O)[C@@H](O)CO [Maltitol] | 943.5543 RFU |
| C=C[C@](C)(O)CC[C@H]1C(=C)CC[C@H]2C(C)(C)CCC[C@]12C [Manool] | 923.6944 RFU |
| CC1(C)CC[C@]2(C(=O)O)CC[C@]3(C)C(=CC[C@@H]4[C@@]5(C)C[C@@H](O)[C@H](O)C(C)(C)[C@@H]5CC[C@]43C)[C@@H]2C1 [Maslinic acid] | 1120.923 RFU |
| CC1O[C@@H](OC[C@H]2O[C@@H](Oc3c(-c4ccc(O)cc4)oc4cc(O)cc(O)c4c3=O)C(O[C@@H]3O[C@H](C)[C@H](O)C(O)C3O)C(O)[C@H]2O)C(O)[C@@H](O)[C@H]1O (stereo partly shown) [Mauritianin] | 860.4015 RFU |
| CNC(C)(C)C(=O)O [MeAIB] | 1061.964 RFU |
| CC1(C)CC[C@]2(C(=O)O)CC[C@]3(C)C(=CC[C@@H]4[C@@]5(C)C[C@H](O)[C@H](O)[C@@](C)(C(=O)O)[C@@H]5CC[C@]43C)[C@@H]2C1 [Medicagenic acid] | 975.8957 RFU |
| O=C(O)[C@H](O)[C@@H](O)[C@H](O)[C@H](O)CO[C@H]1O[C@H](CO)[C@H](O)[C@H](O)[C@H]1O [Melibionic Acid] | 917.5297 RFU |
| O=c1cc(-c2ccc(O)cc2)oc2cc(O)c([C@@H]3O[C@H](CO)[C@@H](O)[C@H](O)[C@H]3O[C@@H]3O[C@H](CO)[C@@H](O)[C@H](O)[C@H]3O)c(O)c12 [Meloside A] | 811.3753 RFU |
| CC(C)=CCC/C(C)=C/CC/C(C)=C/CC/C(C)=C/CC1=C(C)C(=O)c2ccccc2C1=O [Menaquinone-4] | 987.2266 RFU |
| COC(=O)c1ccc(OC)cc1 [Methyl anisate] | 1101.708 RFU and 911.2014 RFU |
| COC(=O)c1cccnc1 [Methyl nicotinate] | 1069.07 RFU and 773.2703 RFU |
| COC(=O)[C@]12CCC(C)(C)C[C@H]1C1=CC[C@@H]3[C@@]4(C)CCC(=O)C(C)(C)[C@@H]4CC[C@@]3(C)[C@]1(C)CC2 [Methyl oleanonate] | 912.7431 RFU |
| C/C1=C2/[N-][C@H]([C@H](CC(N)=O)[C@@]2(C)CCC(=O)NC[C@H](C)OP(=O)([O-])O[C@H]2[C@@H](O)[C@@H](n3cnc4cc(C)c(C)cc43)O[C@@H]2CO)[C@]2(C)N=C(/C(C)=C3N=C(/C=C4N=C1[C@@H](CCC(N)=O)C\4(C)C)[C@@H](CCC(N)=O)[C@]\3(C)CC(N)=O)[C@@H](CCC(N)=O)[C@]2(C)CC(N)=O.[CH3-].[Co+3] [Methylcobalamin] | 1187.639 RFU |
| CC(C(=O)O)C(=O)O [Methylmalonic acid] | 883.2913 RFU |

| SMILES | Lipase (RFU) |
| --- | --- |
| COC1=CC(=O)O[C@@H](/C=C/c2ccc3c(c2)OCO3)C1 [Methylsticin] | 1261.171 RFU |
| O=C(O)C1=CO[C@@H](O[C@@H]2O[C@H](CO)[C@@H](O)[C@H](O)[C@H]2O)[C@H]2[C@@H]1C=C[C@]2(O)CO [Monotropein] | 976.474 RFU |
| CC(C)(O)C1Cc2cc3cc(-c4cc(O)cc(O)c4)oc3cc2O1 (stereo not shown) [Moracin O] | 899.9132 RFU |
| CC1(C)Oc2cc3oc(-c4cc(O)cc(O)c4)cc3cc2C[C@H]1O [Moracin P] | 751.9577 RFU |
| NC(=O)[C@@H]1CCCN1C(=O)[C@H](Cc1ccccc1)NC(=O)[C@@H]1CCCN1C(=O)[C@@H](N)Cc1ccc(O)cc1 [Morphiceptin] (H-YPFP-NH2) | 1251.045 RFU |
| C[C@@H]1CCCCCCCCCCCCC(=O)C1 [Muscone] | 696.5228 RFU |
| CC(=O)c1c(C)c([N+](=O)[O-])c(C(C)(C)C)c([N+](=O)[O-])c1C [Musk ketone] | 777.5201 RFU |
| c1cncc(C2=NCCC2)c1 [Myosmine] | 909.737 RFU |
| C=CCc1cc(OC)c2c(c1)OCO2 [Myristicin] | 960.4671 RFU |
| CC(=O)NCCCCNCCCN.Cl.Cl [N8-Acetylspermidine dihydrochloride] | 781.9265 RFU |
| CC(=O)N[C@H]1[C@H](O[C@H]2[C@H](O)[C@@H](NC(C)=O)C(O)O[C@@H]2CO)O[C@H](CO)[C@@H](O[C@@H]2O[C@H](CO)[C@@H](O)[C@H](O)[C@H]2NC(C)=O)[C@@H]1O (stereo partly shown) [N,N′,N″-Triacetylchitotriose] | 1143.03 RFU |
| CC(=O)N[C@@H](CO)[C@@H](O)[C@H](O)[C@H](O)CO [N-Acetyl-D-Glucosaminitol] | 1055.486 RFU |
| COc1cc(/C=C/C(=O)NCC(O)c2ccc(O)cc2)ccc1O (stereo not shown) [N-Feruloyloctopamine] | 893.4142 RFU |
| COc1cc(/C=C/C(=O)NCCc2c[nH]c3ccc(O)cc23)ccc1O [N-Feruloylserotonin] | 1060.876 RFU |
| O=C(/C=C/c1ccc(O)cc1)NCCc1ccc(O)cc1 [N-p-trans-Coumaroyltyramine] | 1082.731 RFU |
| NC(=O)c1ccc[n+]([C@@H]2O[C@H](COP(=O)([O-])OP(=O)(O)OC[C@H]3O[C@@H](n4cnc5c(N)ncnc54)[C@H](O)[C@@H]3O)[C@@H](O)[C@H]2O)c1 [NAD+] | 662.6014 RFU |
| NC(=O)C1=CN([C@@H]2O[C@H](COP(=O)([O-])OP(=O)([O-])OC[C@H]3O[C@@H](n4cnc5c(N)ncnc54)[C@H](O)[C@@H]3O)[C@@H](O)[C@H]2O)C=CC1.[Na+].[Na+] [NADH (disodium salt)] | 996.9696 RFU |
| NC(=O)c1ccc[n+]([C@@H]2O[C@H](COP(=O)([O-])OP(=O)(O)OC[C@H]3O[C@@H](n4cnc5c(N)ncnc54)[C@H](OP(=O)([O-])[O-])[C@@H]3O)[C@@H](O)[C@H]2O)c1.[Na+].[Na+] [NADP (disodium salt)] | 762.8961 RFU |
| NC(=O)c1ccc[n+]([C@@H]2O[C@H](COP(=O)([O-])OP(=O)(O)OC[C@H]3O[C@@H](n4cnc5c(N)ncnc54)[C@H](OP(=O)(O)O)[C@@H]3O)[C@@H](O)[C@H]2O)c1 [NADP] | 1113.421 RFU |
| CCN(CC)CCOC(=O)C(Cc1cccc2ccccc12)CC1CCCO1.O=C(O)C(=O)O (stereo not shown) [Naftidrofuryl (oxalate)] | 1022.029 RFU |

| SMILES | Lipase (RFU) |
| --- | --- |
| O=C(/C=C/c1ccc(O)c(O)c1)O[C@@H]1C[C@@](O)(C(=O)O)C[C@@H](O)[C@@H]1O [Neochlorogenic acid] | 1024.869 RFU |
| COc1ccc(-c2cc(=O)c3c(O)cc(O[C@@H]4O[C@H](CO)[C@@H](O)[C@H](O)[C@H]4O[C@@H]4O[C@@H](C)[C@H](O)[C@@H](O)[C@H]4O)cc3o2)cc1O [Neodiosmin] | 928.3945 RFU |
| C[C@@H]1O[C@@H](O[C@H]2[C@H](Oc3cc(O)c4c(c3)O[C@H](c3ccc(O)c(O)c3)CC4=O)O[C@H](CO)[C@@H](O)[C@@H]2O)[C@H](O)[C@H](O)[C@H]1O [Neoeriocitrin] | 1015.344 RFU |
| COc1c(CC=C(C)C)c(O)cc2oc(=O)c3c4ccc(O)cc4oc3c12 [Neoglycyrol] | 923.0229 RFU |
| COc1ccc([C@@H]2CC(=O)c3c(O)cc(O[C@@H]4O[C@H](CO)[C@@H](O)[C@H](O)[C@H]4O[C@@H]4O[C@@H](C)[C@H](O)[C@@H](O)[C@H]4O)cc3O2)cc1O [Neohesperidin] | 774.0784 RFU |
| O=C(/C=C/c1ccc(O)cc1)c1ccc(O[C@@H]2O[C@H](CO)[C@@H](O)[C@H](O)[C@H]2O)cc1O [Neoisoliquiritin] | 789.3461 RFU |
| O=C1C[C@@H](c2ccc(O)cc2)Oc2cc(O[C@@H]3O[C@H](CO)[C@@H](O)[C@H](O)[C@H]3O)ccc21 [Neoliquiritin] | 772.4579 RFU |
| COC(=O)[C@H](Cc1ccccc1)NC(=O)[C@H](CC(=O)O)NCCC(C)(C)C [Neotame] | 994.7737 RFU |
| COc1c(O)cc2oc(-c3ccc(O)c(O)c3)cc(=O)c2c1O [Nepetin] | 666.0077 RFU |
| CC(=O)NCCCC[C@H](N)C(=O)O [Nepsilon-Acetyl-L-lysine] | 1188.891 RFU |
| C[C@@H]1O[C@@H](OC[C@H]2O[C@@H](Oc3c(-c4ccc(O)cc4)oc4cc(O)cc(O)c4c3=O)[C@H](O)[C@@H](O)[C@@H]2O)[C@H](O)[C@H](O)[C@H]1O [Nicotiflorin] | 810.1075 RFU |
| NC(=O)c1ccc[n+]([C@@H]2O[C@H](CO)[C@@H](O)[C@H]2O)c1.[Cl-] [Nicotinamide riboside (chloride)] | 991.823 RFU |
| N[C@@H](CCC(=O)N[C@@H](CSN=O)C(=O)NCC(=O)O)C(=O)O [Nitrosoglutathione] | 688.3783 RFU |
| CC(C)(O)[C@H]1Cc2cc3ccc(=O)oc3cc2O1 [Nodakenetin] | 882.2828 RFU |
| CC(=O)O[C@H]1CC(=O)OC(C)(C)[C@@H]2CC(=O)[C@]3(C)[C@H](CC[C@@]4(C)[C@H](c5ccoc5)OC(=O)[C@H]5O[C@]543)[C@@]12C [Nomilin] | 989.5541 RFU |
| CCCCCCCCC(=O)NCc1ccc(O)c(OC)c1 [Nonivamide] | 911.9923 RFU and 1070.28 RFU |
| c1ccc2c(c1)[nH]c1cnccc12 [Norharmane] | 960.1337 RFU |
| COc1cc2c(cc1O)C[C@@H]1NCCc3cc(OC)c(O)c-2c31 [Norisoboldine] | 812.7907 RFU |
